Assay results from patent US10633389B2, “CARM1 inhibitors and uses thereof” (Epizyme, Inc., priority 2013, dated 2020).

What was measured:
NCI-H929 cells = test: Human myeloma cell line 14-day proliferation assay, NCI-H929; format: cell-based; settings: NCI-H929 Human Multiple Myeloma cell line, varying doses, 14-day proliferation assay (FIG. 1A)
Method: (§1) FIGS. 1A and 1B show cell proliferation in response to the presence of compounds of the current invention. Human Multiple Myeloma cell lines NCI-H929 (FIG. 1A) and U266B1 (FIG. 1B) were treated with varying doses of 304-1a (medium grey data points), 23-3 (light grey data points), and 113-3 (black data points) in a 14-day proliferation assay. At the end of the experiment, total cell number was determined for each cell line for different doses of 304-1a, 23-3, and 113-3.
as §1, with “Human” for “FIGS. 1A and 1B show cell proliferation in response to the presence of compounds of the current invention. Human”

[1] = tested on: asymmetric di-methyl PABP1 in RKO cells; test: RKO methylation assay, In Cell Western (ICW) for asymmetric di-methyl PABP1; format: cell-based; settings: Cellular potencies, ICW PABP1me2a
Outline: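 RKO cells treated with compound for 48 h at 37 °C, then fixed, permeabilized and immunostained for asymmetric di-methyl PABP1, with DRAQ5 as DNA stain. Infrared 700/800 nm signal ratio normalized to DMSO and 20 μM reference-compound controls; IC50 from triplicate wells.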

U266B1 cells = test: Human myeloma cell line 14-day proliferation assay, U266B1; format: cell-based; settings: U266B1 Human Multiple Myeloma cell line, varying doses, 14-day proliferation assay (FIG. 1B)
Method: as §1
as §1, with “Human” for “FIGS. 1A and 1B show cell proliferation in response to the presence of compounds of the current invention. Human”

human CARM1 (PRMT4) = human CARM1 (PRMT4) (Homo sapiens (Human), UniProt Q86X55); test: CARM1 enzyme assay on peptide substrate (3H-SAM Flashplate); settings: Biochemical potencies, read-out: Biochem IC50
Chain of human CARM1 (PRMT4) (Q86X55 other isoform, or with tags, fused parts or gaps isoform Q86X55-1): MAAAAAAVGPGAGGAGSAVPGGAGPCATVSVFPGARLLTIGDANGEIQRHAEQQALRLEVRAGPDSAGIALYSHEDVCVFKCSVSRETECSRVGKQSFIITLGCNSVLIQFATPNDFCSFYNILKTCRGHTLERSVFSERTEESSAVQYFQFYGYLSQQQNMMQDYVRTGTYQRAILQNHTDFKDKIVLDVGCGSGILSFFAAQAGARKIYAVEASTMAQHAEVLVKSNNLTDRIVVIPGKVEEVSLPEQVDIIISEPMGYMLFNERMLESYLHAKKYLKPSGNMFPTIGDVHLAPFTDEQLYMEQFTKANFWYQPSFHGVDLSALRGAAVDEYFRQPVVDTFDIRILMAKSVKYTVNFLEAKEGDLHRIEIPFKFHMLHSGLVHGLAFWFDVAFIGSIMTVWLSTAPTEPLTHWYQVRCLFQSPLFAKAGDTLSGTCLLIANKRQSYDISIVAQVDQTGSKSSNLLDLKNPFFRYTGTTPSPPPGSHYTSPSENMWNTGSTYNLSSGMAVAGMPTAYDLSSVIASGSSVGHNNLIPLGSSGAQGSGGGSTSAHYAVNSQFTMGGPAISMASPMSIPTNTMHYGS

SMILES	cell proliferation (total cell number) (NCI-H929 cells)	IC50 ([1]; Homo sapiens, RKO) [µM]	cell proliferation (total cell number) (U266B1 cells)	IC50 (human CARM1 (PRMT4)) [µM]	IC50 [1] [µM]
CCOC(=O)N1CCOC[C@@H]1CNc1nc(-c2cc(OC[C@H](O)CNC)ccc2Cl)nc(-c2c(C)noc2C)c1C [Example 23-3]	decreased the proliferation	< 5	decreased the proliferation		
CNC[C@@H](O)COc1ccc(Cl)c(-c2nc(-c3c(C)noc3C)c(C)c(N3Cc4cccnc4C3)n2)c1 [Example 113-3]	decreased the proliferation	< 5	decreased the proliferation		
CNC[C@@H](O)COc1ccc(Cl)c(-c2nc(NC3CCN(C(=O)OC)CC3)c(Cl)c(-c3c(C)noc3C)n2)c1 [Example 304-1a]	decreased the proliferation	< 5	decreased the proliferation		
CNCC(O)COc1cccc(-c2nc(NC3CCOCC3)cc(-c3cncnc3)n2)c1 (stereo not drawn) [Example 655-1a]		≥ 20		0.1 to 1	
CNCC(O)COc1cccc(-c2nc(NC3CCOCC3)cc(-c3ccc(S(C)(=O)=O)cc3)n2)c1 (stereo not drawn) [Example 656-1a]		≥ 20		0.1 to 1	
CNCC(O)COc1cccc(-c2nc(NCCOC)cc(-c3cncnc3)n2)c1 (stereo not drawn) [Example 659-1a]		≥ 20		0.1 to 1	
CNCC(O)COc1cccc(-c2nc(NC3CCOCC3)c(C)c(N3CCN(S(C)(=O)=O)CC3)n2)c1 (stereo not drawn) [Example 660-1a]		≥ 20		1 to 3	
CNCC(O)COc1cccc(-c2nc(NC3CCOCC3)c(C)c(-c3c(C)n[nH]c3C)n2)c1 (stereo not drawn) [Example 661-1a]		≥ 20		0.1 to 1	
CNCC(O)COc1cccc(-c2nc(NCC3CCNCC3)cc(-c3ccncc3)n2)c1 (stereo not drawn) [Example 662-1a]		≥ 20		0.1 to 1	
CNCC(O)COc1cccc(-c2nc(NC3CCOCC3)c(C)c(N3CCN(C4CC4)CC3)n2)c1 (stereo not drawn) [Example 663-1a]		≥ 20		0.1 to 1	
CNCC(O)COc1cccc(-c2nc(NC3CCOCC3)c(C)c(N3CCNC(C)(C)C3)n2)c1 (stereo not drawn) [Example 664-1a]		≥ 20		0.1 to 1	
CNCC(O)COc1cccc(-c2nc(NC3CCNCC3)cc(-c3ccncc3)n2)c1 (stereo not drawn) [Example 666-1a]		≥ 20		0.1 to 1	
CNCC(O)COc1cccc(-c2nc(NCCOC)cc(C3=CCCC3)n2)c1 (stereo not drawn) [Example 667-1a]		≥ 20		0.1 to 1	
CCS(=O)(=O)N1CCN(c2nc(-c3cccc(OCC(O)CNC)c3)nc(NC3CCOCC3)c2C)CC1 (stereo not drawn) [Example 668-1a]		≥ 20		0.1 to 1	
CNCC(O)COc1cccc(-c2nc(NC3CCOCC3)cc(-c3c(C)n[nH]c3C)n2)c1 (stereo not drawn) [Example 670-1a]		≥ 20		0.1 to 1	
CNCC(O)COc1cccc(-c2nc(-c3ccncc3)cc(N(C)C3CCN(C(C)=O)CC3)n2)c1 (stereo not drawn) [Example 671-1a]		≥ 20		0.1 to 1	
CNCC(O)COc1cccc(-c2nc(N[C@H]3CO[C@H]4OCC[C@H]43)cc(N3CCOCC3)n2)c1 (stereo partly drawn) [Example 672-1a]				0.1 to 1	10 to 20
CNCC(O)COc1cccc(-c2nc(N[C@H]3CO[C@H]4OCC[C@H]43)c(C)c(N3CCOCC3)n2)c1 (stereo partly drawn) [Example 673-1a]				0.1 to 1	10 to 20
CNCC(O)COc1cccc(-c2nc(-c3ccncc3)cc(N(C)C3CCN(C)CC3)n2)c1 (stereo not drawn) [Example 674-1a]		≥ 20		0.1 to 1	
CNCC(O)COc1cccc(-c2nc(NC3CCOCC3)cc(-c3c(C)nn(C)c3C)n2)c1 (stereo not drawn) [Example 675-1a]		≥ 20		0.1 to 1	
CCNc1nc(-c2cccc(OCC(O)CNC)c2)nc(NC2CCOCC2)c1C (stereo not drawn) [Example 676-1a]		≥ 20		1 to 3	
CNCC(O)COc1cccc(-c2nc(NC3CCOCC3)c(C)c(-c3c(C)nn(C)c3C)n2)c1 (stereo not drawn) [Example 678-1a]		≥ 20		0.1 to 1	
CNCC(O)COc1cccc(-c2nc(N[C@@H]3CC[C@@H](O)C3)c(C)c(N3CCOCC3)n2)c1 (stereo partly drawn) [Example 679-1a]		≥ 20		1 to 3	
CNCC(O)COc1cccc(-c2nc(N[C@@H]3CC[C@H](C(=O)NC)C3)c(C)c(N3CCOCC3)n2)c1 (stereo partly drawn) [Example 680-1a]		≥ 20		0.1 to 1	
CNCC(O)COc1cccc(-c2nc(N[C@@H]3CC[C@H](C(=O)N4CCOCC4)C3)c(C)c(N3CCOCC3)n2)c1 (stereo partly drawn) [Example 681-1a]		≥ 20		1 to 3	
CNCC(O)COc1cccc(-c2nc(NC3CCCC3)c(C)c(N3CCOCC3)n2)c1 (stereo not drawn) [Example 683-1a]		≥ 20		0.1 to 1	
CNCC(O)COc1cccc(-c2nc(NC3(C)CCOCC3)cc(N3CCOCC3)n2)c1 (stereo not drawn) [Example 684-1a]		≥ 20		1 to 3	
CNCC(O)COc1cccc(-c2nc(NCCCN3CCCCCC3=O)cc(N3CCOCC3)n2)c1 (stereo not drawn) [Example 685-1a]		≥ 20		1 to 3	
CNC[C@@H](O)COc1cccc(-c2nc(NCC3CCOCC3)cc(-c3cn(S(C)(=O)=O)c4ncncc34)n2)c1 [Example 686-1a]		≥ 20		0.1 to 1	
CNCC(O)COc1cccc(-c2nc(N[C@@H]3CC[C@H](O)C3)c(C)c(N3CCOCC3)n2)c1 (stereo partly drawn) [Example 687-1a]		≥ 20		0.1 to 1	
